Laboratory results taken from patent US9961896B2, “Cleaning liquid” (priority 2013, dated 2018).

What was measured:
Test in all cases: EN 1276 bactericidal activity
Type in all cases: cell-based
Conditions in all cases: diluted to 1:20 v/v; 5 minutes at 20° C.; dirty conditions
[1] = test system: Staphylococcus aureus (NCTC 10788)
[2] = test system: Pseudomonas aeruginosa (NCI MB 10421)
[3] = test system: Escherichia coli (NCTC 10418)
[4] = test system: Enterococcus hirae (NCIMB 8192)

Measured: passes the requirements of EN 1276 for bactericidal activity

Cc1cc(O)ccc1Cl [Acticide PCMC, P-chloro-m-cresol]
does not pass: all assays above

O=[N+]([O-])C(Br)(CO)CO [Acticide L, Bronopol]
does not pass: all assays above

Benzalkonium chloride [Acticide BAC50M]
does not pass: all assays above

CCCCCCCCCC[N+](C)(C)CCCCCCCCCC.[Cl-] [Acticide DDQ50, Didecyl Dimethyl Ammonium Chloride]
does not pass: all assays above
